Measurements taken from US8916579B2, “5-fluoropyrimidinone derivatives” (Dow AgroSciences, LLC., priority 2009, dated 2014).
Read-outs that look alike come from different tables or passages of the source.

Legend:
[1] = test system: Mycosphaerella graminicola; anamorph: Septoria tritici; Bayer code SEPTTR; assay: Fungicidal activity: leaf blotch of wheat, greenhouse wheat plants (variety Yuma), percent disease control; format: in vivo; conditions: Zymoseptoria tritici, 100 ppm, wheat plants
Description: Evaluation of Fungicidal Activity: Leaf Blotch of Wheat (Mycosphaerella graminicola; anamorph: Septoria tritici; Bayer code SEPTTR)
Wheat plants (variety Yuma) were grown from seed in a greenhouse in 50% mineral soil/50% soil-less Metro mix until the first leaf was fully emerged, with 7-10 seedlings per pot. These plants were inoculated with an aqueous spore suspension of Septoria tritici either prior to or after fungicide treatments. After inoculation the plants were kept in 100% relative humidity (one day in a dark dew chamber followed by two to three days in a lighted dew chamber) to permit spores to germinate and infect the leaf. The plants were then transferred to a greenhouse for disease to develop.
The effectiveness of the test compounds in controlling disease was determined by assessing the severity of disease on treated plants, then converting the severity to percent control based on the level of disease on untreated, inoculated plants. • In each case of Table II the rating scale is as follows: […]

melting point: 88.8 to 91.7 °C
Structure (SMILES): CC(C)Cn1cc(F)c(NCc2cccs2)nc1=O [Compound 106]
pest or weed control at 100 ppm ([1]; 24 h, One-Day Protectant (1DP), read-out: SEPTTR 100 PPM 1DP (% Disease Control rating)): 26 to 50%
pest or weed control at 100 ppm ([1]; 72 h, Three-Day Curative (3DC), read-out: SEPTTR 100 PPM 3DC (% Disease Control rating)): 26 to 50%
